# According to patent US12077503B2, “Substituted cyclic amides and their use as herbicides” (FMC CORPORATION, priority 2015, dated 2024):
# What was measured:
# Assay in all cases: Test C flooded paddy test
# Assay type in all cases: in vivo
# [1] = tested on: ducksalad (Heteranthera limosa); details: Flood; for Plant response rating (scale of 0 to 100), Ducksalad: 0 is no effect, 100 is complete control
# Method in brief: (§1)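 Scores express visual response relative to untreated controls, 0 meaning no effect and 100 complete control, assessed 13 to 15 d after treatment in the greenhouse. Compound went into water flooded 3 cm above soil around 2-leaf plants.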
# [2] = tested on: sedge, umbrella (small-flower umbrella sedge, Cyperus difformis); details: Flood; for Plant response rating (scale of 0 to 100), Sedge, Umbrella: 0 is no effect, 100 is complete control
# Method in brief: as §1
# rice (Oryza sativa) = details: Flood; for Plant response rating (scale of 0 to 100), Rice: 0 is no effect, 100 is complete control
# Method in brief: as §1
# [3] = tested on: barnyardgrass (Echinochloa crus-galli); details: Flood; for Plant response rating (scale of 0 to 100), Barnyardgrass: 0 is no effect, 100 is complete control
# Method in brief: as §1
# [4] = 31 g ai/ha, scale 0 to 100 (0 no effect, 100 complete control), 13 to 15 d
structure (smiles),measurement,setting,value
O=C1NCC(c2cccc(OC(F)(F)C(F)F)c2)C1C(=O)Nc1cccc(F)c1F (racemic) [Compound 697],"Plant response rating, Ducksalad",[1]; [4],40
same,"Plant response rating (scale of 0 to 100), Ducksalad",[1]; 62 g ai/ha,40
same,"Plant response rating (scale of 0 to 100), Ducksalad",[1]; 125 g ai/ha,60
same,"Plant response rating (scale of 0 to 100), Ducksalad",[1]; 250 g ai/ha,100
same,"Plant response rating, Sedge, Umbrella",[2]; [4],0
same,"Plant response rating (scale of 0 to 100), Sedge, Umbrella",[2]; 62 g ai/ha,0
same,"Plant response rating (scale of 0 to 100), Sedge, Umbrella",[2]; 125 g ai/ha,0
same,"Plant response rating (scale of 0 to 100), Sedge, Umbrella",[2]; 250 g ai/ha,0
same,"Plant response rating, Rice",rice (Oryza sativa); [4],0
same,"Plant response rating (scale of 0 to 100), Rice",rice (Oryza sativa); 62 g ai/ha,0
same,"Plant response rating (scale of 0 to 100), Rice",rice (Oryza sativa); 125 g ai/ha,50
same,"Plant response rating (scale of 0 to 100), Rice",rice (Oryza sativa); 250 g ai/ha,70
same,"Plant response rating, Barnyardgrass",[3]; [4],0
same,"Plant response rating (scale of 0 to 100), Barnyardgrass",[3]; 62 g ai/ha,30
same,"Plant response rating (scale of 0 to 100), Barnyardgrass",[3]; 125 g ai/ha,45
same,"Plant response rating (scale of 0 to 100), Barnyardgrass",[3]; 250 g ai/ha,45
